# What was measured:
# Assay in all cases: Kinase panel screen
# Type in all cases: biochemical
# Conditions in all cases: 10 µM compound
# Lck = Lck (Homo sapiens, UniProt P06239)
# Description: (§1) Figure 7 (see also Table S4) summarizes the results of this assay as a histogram plotting the percentage of the remaining enzyme activity (x-axis) as a function of added lead compound (HL^8: blue trace, 8: red trace) for each of the 50 enzymes assayed (y-axis). […] Thus, the coordination to copper(II) completely changes the kinase inhibition profile of HL^8.
# (§2) Figure 7 Screening of HL^8 and 8 against 50 enzymes: histogram with % remaining activity on the x-axis plotted against the compound identifier (blue trace: HL^8 and red trace: 8) and enzyme identifier on the […]. The screen was carried out at a compound concentration of 10 μM, an enzyme concentration of 50 nM, and an ATP concentration of 100 μM.
# (§3) All kinase assays were carried out using Multidrop 384’s at room temperature in a total assay volume of 25.5 μL. To plates containing 0.5 μL of HL^8 and 8, DMSO control or acid blank […], 15 μL of an enzyme mix containing enzyme […], and excess peptide/protein substrate in buffer was added. Compounds were pre-incubated in the presence of the enzyme and peptide/protein substrate for 5 min before initiation of the reaction by addition of 10 μL of ATP (final concentration selected for each kinase at 5, 20, or 50 μM). Assays were carried out for 30 min at room temperature before termination by the addition of 5 μL of orthophosphoric acid. The assay plates were then harvested onto P81 Unifilter Plates by a PerkinElmer Harvester and air dried. The dry Unifilter plates were then sealed on the addition of MicroScint O and were counted in PerkinElmer Topcount scintillation counters.
# PDK1 = PDK1 (Homo sapiens, UniProt O15530)
# Description: as §1, §2, §3
# RSK1 = RSK1 (Homo sapiens, UniProt Q15418)
# Description: as §1, §2, §3
# Src = Src (Homo sapiens, UniProt P12931)
# Description: as §1, §2, §3
# ROCK 2 = ROCK 2 (Homo sapiens, UniProt O75116)
# Description: as §1, §2, §3
# VEG-FR = VEG-FR (Homo sapiens, UniProt P17948)
# Description: as §1, §2, §3
# BTK = BTK (Homo sapiens, UniProt Q06187)
# Description: as §1, §2, §3
# SRPK1 = SRPK1 (Homo sapiens, UniProt Q96SB4)
# Description: as §1, §2, §3
# TrkA = TrkA (Homo sapiens, UniProt P04629)
# Description: as §1, §2, §3
# SYK = SYK (Homo sapiens, UniProt P43405)
# Description: as §1, §2, §3
# PKD1 = PKD1 (Homo sapiens, UniProt Q15139)
# Description: as §1, §2, §3
# EPH-A2 = EPH-A2 (Homo sapiens, UniProt P29317)
# Description: as §1, §2, §3
# S6K1 = S6K1 (Homo sapiens, UniProt P23443)
# Description: as §1, §2, §3
# PLK1 = PLK1 (Homo sapiens, UniProt P53350)
# Description: as §1, §2, §3
# Aurora B = Aurora B (Homo sapiens, UniProt Q96GD4)
# Description: as §1, §2, §3
# PAK4 = PAK4 (Homo sapiens, UniProt O96013)
# Description: as §1, §2, §3
# NEK6 = NEK6 (Homo sapiens, UniProt Q9HC98)
# Description: as §1, §2, §3
# CK1δ = CK1δ (Homo sapiens, UniProt P48730)
# Description: as §1, §2, §3
# SmMLCK = SmMLCK (Homo sapiens, UniProt Q15746)
# Description: as §1, §2, §3
# DYRK1A = DYRK1A (Homo sapiens, UniProt Q13627)
# Description: as §1, §2, §3
# MLK3 = MLK3 (Homo sapiens, UniProt Q16584)
# Description: as §1, §2, §3
# PRK2 = PRK2 (Homo sapiens, UniProt Q16513)
# Description: as §1, §2, §3
# JAK3 = JAK3 (Homo sapiens, UniProt P52333)
# Description: as §1, §2, §3
# CHK2 = CHK2 (Homo sapiens, UniProt O96017)
# Description: as §1, §2, §3
# p38a MAPK = p38a MAPK (Homo sapiens, UniProt Q16539)
# Description: as §1, §2, §3
# HER4 = HER4 (Homo sapiens, UniProt Q15303)
# Description: as §1, §2, §3
# TAK1 = TAK1 (Homo sapiens, UniProt O43318)
# Description: as §1, §2, §3
# PKCa = PKCa (Homo sapiens, UniProt P17252)
# Description: as §1, §2, §3
# MST2 = MST2 (Homo sapiens, UniProt Q13188)
# Description: as §1, §2, §3
# MARK3 = MARK3 (Homo sapiens, UniProt P27448)
# Description: as §1, §2, §3
# EF2K = EF2K (Homo sapiens, UniProt O00418)
# Description: as §1, §2, §3
# JNK1 = JNK1 (Homo sapiens, UniProt P45983)
# Description: as §1, §2, §3
# CAMKKb = CAMKKb (Homo sapiens, UniProt Q96RR4)
# Description: as §1, §2, §3
# LKB1 = LKB1 (Homo sapiens, UniProt Q15831)
# Description: as §1, §2, §3
# IGF-1R = IGF-1R (Homo sapiens, UniProt P08069)
# Description: as §1, §2, §3
# PKBa = PKBa (Homo sapiens, UniProt P31749)
# Description: as §1, §2, §3
# Sequence of EPH-A2 (P29317 24-976): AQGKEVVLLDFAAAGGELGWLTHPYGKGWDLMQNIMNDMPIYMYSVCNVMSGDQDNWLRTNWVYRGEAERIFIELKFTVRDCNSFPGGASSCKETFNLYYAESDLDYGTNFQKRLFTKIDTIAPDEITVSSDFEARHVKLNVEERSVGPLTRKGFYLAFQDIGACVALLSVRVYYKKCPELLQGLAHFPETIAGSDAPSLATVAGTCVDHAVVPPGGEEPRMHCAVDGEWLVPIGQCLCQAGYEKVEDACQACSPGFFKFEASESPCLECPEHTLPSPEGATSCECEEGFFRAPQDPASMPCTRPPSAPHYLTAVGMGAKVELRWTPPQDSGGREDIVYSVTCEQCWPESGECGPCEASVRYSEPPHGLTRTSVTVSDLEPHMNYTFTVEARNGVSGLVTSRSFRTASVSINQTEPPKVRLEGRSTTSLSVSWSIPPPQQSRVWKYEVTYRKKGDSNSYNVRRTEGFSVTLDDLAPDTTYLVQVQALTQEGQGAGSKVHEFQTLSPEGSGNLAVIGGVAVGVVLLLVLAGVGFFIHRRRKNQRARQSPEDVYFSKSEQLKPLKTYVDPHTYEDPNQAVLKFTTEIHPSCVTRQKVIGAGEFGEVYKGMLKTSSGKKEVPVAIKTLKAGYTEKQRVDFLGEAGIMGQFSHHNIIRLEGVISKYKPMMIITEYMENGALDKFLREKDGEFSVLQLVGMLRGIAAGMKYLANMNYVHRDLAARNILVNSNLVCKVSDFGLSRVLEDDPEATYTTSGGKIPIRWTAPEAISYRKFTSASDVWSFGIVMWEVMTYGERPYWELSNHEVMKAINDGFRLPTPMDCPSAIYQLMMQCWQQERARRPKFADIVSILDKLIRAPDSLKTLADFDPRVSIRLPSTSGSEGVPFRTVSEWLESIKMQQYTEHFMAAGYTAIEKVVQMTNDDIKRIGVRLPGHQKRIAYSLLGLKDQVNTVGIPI
# Sequence of VEG-FR (P17948 27-1338): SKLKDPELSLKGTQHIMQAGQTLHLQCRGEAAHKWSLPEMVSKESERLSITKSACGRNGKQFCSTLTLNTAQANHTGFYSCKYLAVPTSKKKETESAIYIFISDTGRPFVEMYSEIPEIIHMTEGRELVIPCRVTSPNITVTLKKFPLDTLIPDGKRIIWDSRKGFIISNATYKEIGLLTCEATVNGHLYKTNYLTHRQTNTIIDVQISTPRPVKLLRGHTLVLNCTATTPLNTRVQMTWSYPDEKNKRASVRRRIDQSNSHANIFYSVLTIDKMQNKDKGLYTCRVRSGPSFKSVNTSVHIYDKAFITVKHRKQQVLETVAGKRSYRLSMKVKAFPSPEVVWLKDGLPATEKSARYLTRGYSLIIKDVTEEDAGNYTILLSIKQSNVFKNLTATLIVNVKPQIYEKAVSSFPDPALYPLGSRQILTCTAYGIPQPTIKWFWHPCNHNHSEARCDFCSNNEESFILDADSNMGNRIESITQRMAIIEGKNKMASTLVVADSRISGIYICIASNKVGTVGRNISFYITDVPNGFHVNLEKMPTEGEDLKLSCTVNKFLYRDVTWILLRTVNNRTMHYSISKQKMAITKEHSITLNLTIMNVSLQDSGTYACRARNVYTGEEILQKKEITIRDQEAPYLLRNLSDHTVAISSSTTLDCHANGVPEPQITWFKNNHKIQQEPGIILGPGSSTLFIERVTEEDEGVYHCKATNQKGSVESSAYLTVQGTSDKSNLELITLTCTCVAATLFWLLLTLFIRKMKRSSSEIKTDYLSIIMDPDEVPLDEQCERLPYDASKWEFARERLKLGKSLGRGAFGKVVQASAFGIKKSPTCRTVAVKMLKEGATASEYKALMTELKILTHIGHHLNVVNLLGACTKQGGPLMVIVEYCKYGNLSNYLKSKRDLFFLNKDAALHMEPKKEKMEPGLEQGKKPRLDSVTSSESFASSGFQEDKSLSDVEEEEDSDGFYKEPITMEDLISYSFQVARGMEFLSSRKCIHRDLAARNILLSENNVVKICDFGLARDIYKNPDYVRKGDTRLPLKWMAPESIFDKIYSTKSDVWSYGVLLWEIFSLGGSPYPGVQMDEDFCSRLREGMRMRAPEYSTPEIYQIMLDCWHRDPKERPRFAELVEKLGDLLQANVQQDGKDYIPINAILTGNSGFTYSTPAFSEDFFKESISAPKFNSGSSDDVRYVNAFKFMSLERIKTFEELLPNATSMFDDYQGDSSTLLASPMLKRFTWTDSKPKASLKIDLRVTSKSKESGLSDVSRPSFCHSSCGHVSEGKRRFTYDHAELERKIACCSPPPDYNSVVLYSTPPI
# Sequence of RSK1 (Q15418 whole entry): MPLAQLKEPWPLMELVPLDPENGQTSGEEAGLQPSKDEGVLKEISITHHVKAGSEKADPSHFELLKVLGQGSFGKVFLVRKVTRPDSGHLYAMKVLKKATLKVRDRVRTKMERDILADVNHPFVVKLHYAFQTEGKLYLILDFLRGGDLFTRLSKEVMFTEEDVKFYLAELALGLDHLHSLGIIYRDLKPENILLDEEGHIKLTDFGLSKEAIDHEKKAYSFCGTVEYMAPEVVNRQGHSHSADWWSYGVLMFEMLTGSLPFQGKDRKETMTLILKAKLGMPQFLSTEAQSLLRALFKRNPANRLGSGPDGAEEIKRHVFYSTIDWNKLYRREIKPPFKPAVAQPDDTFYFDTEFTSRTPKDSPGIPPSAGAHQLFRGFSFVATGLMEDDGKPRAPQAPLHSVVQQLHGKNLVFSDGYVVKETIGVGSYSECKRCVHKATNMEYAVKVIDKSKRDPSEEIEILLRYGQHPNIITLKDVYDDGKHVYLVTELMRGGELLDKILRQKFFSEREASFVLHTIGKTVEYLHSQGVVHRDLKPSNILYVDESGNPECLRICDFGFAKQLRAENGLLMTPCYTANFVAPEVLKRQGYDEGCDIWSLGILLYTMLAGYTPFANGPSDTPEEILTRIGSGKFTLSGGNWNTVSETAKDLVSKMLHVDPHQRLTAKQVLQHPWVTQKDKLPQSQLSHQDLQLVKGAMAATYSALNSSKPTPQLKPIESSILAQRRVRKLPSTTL
# Sequence of SmMLCK (Q15746 923-1914): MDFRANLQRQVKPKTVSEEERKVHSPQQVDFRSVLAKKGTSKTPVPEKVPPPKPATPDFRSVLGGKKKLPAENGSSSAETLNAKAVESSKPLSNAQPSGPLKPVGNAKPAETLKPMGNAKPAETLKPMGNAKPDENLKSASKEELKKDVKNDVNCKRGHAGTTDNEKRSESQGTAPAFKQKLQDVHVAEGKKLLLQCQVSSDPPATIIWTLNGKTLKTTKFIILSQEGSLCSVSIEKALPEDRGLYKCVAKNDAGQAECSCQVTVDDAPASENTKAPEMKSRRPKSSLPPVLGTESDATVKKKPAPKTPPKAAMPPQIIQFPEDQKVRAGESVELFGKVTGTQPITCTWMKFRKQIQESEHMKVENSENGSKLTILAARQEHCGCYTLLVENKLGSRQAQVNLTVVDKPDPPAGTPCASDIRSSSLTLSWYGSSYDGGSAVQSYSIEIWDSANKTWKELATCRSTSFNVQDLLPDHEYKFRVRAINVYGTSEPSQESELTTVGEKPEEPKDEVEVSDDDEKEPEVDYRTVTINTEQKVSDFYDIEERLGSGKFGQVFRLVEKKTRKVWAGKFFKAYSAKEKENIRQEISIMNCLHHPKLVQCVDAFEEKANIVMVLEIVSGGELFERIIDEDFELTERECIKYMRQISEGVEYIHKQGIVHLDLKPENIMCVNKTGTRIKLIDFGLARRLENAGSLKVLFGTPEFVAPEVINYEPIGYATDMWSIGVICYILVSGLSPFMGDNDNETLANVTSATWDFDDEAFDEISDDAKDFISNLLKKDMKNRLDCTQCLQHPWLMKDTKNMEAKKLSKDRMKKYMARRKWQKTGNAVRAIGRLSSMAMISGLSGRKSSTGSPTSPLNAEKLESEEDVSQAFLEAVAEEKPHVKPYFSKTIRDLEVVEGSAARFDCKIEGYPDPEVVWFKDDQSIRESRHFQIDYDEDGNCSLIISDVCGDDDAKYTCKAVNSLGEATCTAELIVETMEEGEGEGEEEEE
# Sequence of TAK1 (O43318 1-303 limits assumed): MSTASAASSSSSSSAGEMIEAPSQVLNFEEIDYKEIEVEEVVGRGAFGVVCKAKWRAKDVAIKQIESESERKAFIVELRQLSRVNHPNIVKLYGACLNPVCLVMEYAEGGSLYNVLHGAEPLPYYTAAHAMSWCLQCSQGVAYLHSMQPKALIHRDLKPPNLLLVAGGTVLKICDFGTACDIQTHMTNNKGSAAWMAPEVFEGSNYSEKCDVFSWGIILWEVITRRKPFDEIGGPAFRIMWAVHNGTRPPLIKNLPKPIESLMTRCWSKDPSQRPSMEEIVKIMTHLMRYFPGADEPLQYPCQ
# Sequence of BTK (Q06187 whole entry): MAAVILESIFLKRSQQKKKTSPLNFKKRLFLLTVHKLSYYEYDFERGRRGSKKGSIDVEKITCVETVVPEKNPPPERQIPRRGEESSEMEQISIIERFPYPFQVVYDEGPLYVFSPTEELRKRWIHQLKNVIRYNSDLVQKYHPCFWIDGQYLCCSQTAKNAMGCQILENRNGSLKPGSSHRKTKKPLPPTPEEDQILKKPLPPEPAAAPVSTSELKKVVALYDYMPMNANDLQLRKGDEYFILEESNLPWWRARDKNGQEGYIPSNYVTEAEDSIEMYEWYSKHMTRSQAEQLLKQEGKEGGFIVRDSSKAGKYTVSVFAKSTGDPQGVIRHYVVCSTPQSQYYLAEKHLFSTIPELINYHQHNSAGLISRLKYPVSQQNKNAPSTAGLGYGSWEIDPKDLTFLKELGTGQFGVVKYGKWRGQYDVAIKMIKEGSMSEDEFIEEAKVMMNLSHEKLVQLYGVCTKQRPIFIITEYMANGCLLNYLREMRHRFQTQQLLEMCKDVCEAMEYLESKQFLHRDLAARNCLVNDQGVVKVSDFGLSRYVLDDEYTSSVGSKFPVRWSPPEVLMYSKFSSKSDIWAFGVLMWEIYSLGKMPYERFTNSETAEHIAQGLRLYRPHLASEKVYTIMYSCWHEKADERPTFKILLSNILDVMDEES
compound,measurement,setting,value
"CC(=NNc1nc2ccccc2c2c1[nH]c1ccc(Br)cc12)c1ccc(CN2CCOCC2)cn1.[Cl][Cu][Cl] [compound 8, CuCl2(HL^8)·H2O]",% remaining activity,Lck,54%
same,% remaining activity,PDK1,121%
same,% remaining activity,RSK1,53%
same,% remaining activity,Src,125%
same,% remaining activity,ROCK 2,98%
same,% remaining activity,VEG-FR,77%
same,% remaining activity,BTK,61%
same,% remaining activity,SRPK1,40%
same,% remaining activity,TrkA,82%
same,% remaining activity,SYK,39%
same,% remaining activity,PKD1,65%
same,% remaining activity,EPH-A2,132%
same,% remaining activity,S6K1,109%
same,% remaining activity,PLK1,90%
same,% remaining activity,Aurora B,78%
same,% remaining activity,PAK4,144%
same,% remaining activity,NEK6,43%
same,% remaining activity,CK1δ,98%
same,% remaining activity,SmMLCK,87%
same,% remaining activity,DYRK1A,77%
same,% remaining activity,MLK3,41%
same,% remaining activity,PRK2,38%
same,% remaining activity,JAK3,120%
same,% remaining activity,CHK2,119%
same,% remaining activity,p38a MAPK,123%
same,% remaining activity,HER4,71%
same,% remaining activity,TAK1,120%
same,% remaining activity,PKCa,80%
same,% remaining activity,MST2,82%
same,% remaining activity,MARK3,112%
same,% remaining activity,EF2K,108%
same,% remaining activity,JNK1,134%
same,% remaining activity,CAMKKb,98%
same,% remaining activity,LKB1,107%
same,% remaining activity,IGF-1R,60%
same,% remaining activity,PKBa,82%
